One test deals with T1, human tyrosinase (Homo sapiens, UniProt P14679).
T1 construct: endogenous in cells; host or cells: SKMEL 188 human melanoma cell line (licensed from Memorial Sloan-Kettering), lysate
As to the kind of experiment: Tyrosinase (DOPA oxidase) assay using cell lysate. The class given is biochemical. The following applies: SKMEL 188 human melanoma cell lysate, L-DOPA 100 μg/ml, 8 hours, read at 405 nm. As for the experimental part:
1. Tyrosinase (DOPA oxidase) Assay Using Cell Lysate:
Human melanoma cell line, SKMEL 188 (licensed from Memorial Sloan-Kettering), is used in the cell lysate assay and the screen. In the assay, compounds and L-dihydroxyphenylalanine (L-DOPA) (100 μg/ml) are incubated with the cell lysates containing human tyrosinase for 8 hours before the plates are read at 405 nm. Potency of the compounds in DOPA oxidase assay is correlated very well with that in tyrosine hydroxylase assay using 3H-tyrosine as a substrate.

In a further test the test system is black guinea pigs. As to the kind of experiment: In vivo depigmentation study in black guinea pigs. More on the design: species or system guinea pig. The following applies: for depigmentation of skin (in words): 5% in ethanol:propylene glycol 70:30, twice daily, 5 days per week for 4-8 weeks, black or dark brown guinea pigs; for reduction of pigmentation in treated ears (in words) / reversibility of the depigmentation effect (in words) / Depigmentation effect, Δ light reflectance (treated ear - untreated ear), 1 week post-treatment / Depigmentation effect, Δ light reflectance (treated ear - untreated ear), 3-week / Depigmentation effect, Δ light reflectance (treated ear - untreated ear), 6-week / Depigmentation effect, Δ light reflectance (treated ear - untreated ear), 8.5 week: 5% in ethanol:propylene glycol (70:30); for reduction of pigmentation in treated ears (in words) / reversibility of the depigmentation effect (in words): ears of black guinea pigs; for reversibility of the depigmentation effect (in words): after ceasing treatment; for Depigmentation effect, Δ light reflectance (treated ear - untreated ear), 1 week post-treatment / Depigmentation effect, Δ light reflectance (treated ear - untreated ear), 3-week / Depigmentation effect, Δ light reflectance (treated ear - untreated ear), 6-week / Depigmentation effect, Δ light reflectance (treated ear - untreated ear), 8.5 week: topical to ears of black guinea pigs, one value per animal; for Depigmentation effect, Δ light reflectance (treated ear - untreated ear), 3-week / Depigmentation effect, Δ light reflectance (treated ear - untreated ear), 6-week / Depigmentation effect, Δ light reflectance (treated ear - untreated ear), 8.5 week: positive value indicates depigmentation. As for the experimental part:
Black or dark brown guinea pigs with homogeneous skin color can be used in this study. A solution of the test compound of formula I (5% in ethanol:propylene glycol, 70:30) and the vehicle control are applied to the animals twice daily, 5 days per week for 4-8 weeks.
In vivo experiments were carried out to determine the depigmenting effects of 4-cyclohexylresorcinol and 4-cyclopentylresorcinol using the assay described above (in vivo study). Thus, 5% 4-cyclohexylresorcinol and 5% 4-cyclopentylresorcinol, each in ethanol:propylene glycol (70:30), were administered separately to the ears of black guinea pigs. Depigmentation was determined by subtracting the light reflectance of untreated ears from the light reflectance of treated ears.

Consider two compounds from US6132740A, “Resorcinol derivatives” (Pfizer Inc., priority 1998, dated 2000).

pIC50: −log10 of the molar value. Values joined by “and” are separate entries in the source; they are usually repeats but may differ in a detail not shown here. Identical values can stand only once.

The term pIC50 denotes the negative decadic logarithm of the IC50, by convention in mol/L. Read a high pIC50 as a small IC50.

T1 sequence (P14679 19-529): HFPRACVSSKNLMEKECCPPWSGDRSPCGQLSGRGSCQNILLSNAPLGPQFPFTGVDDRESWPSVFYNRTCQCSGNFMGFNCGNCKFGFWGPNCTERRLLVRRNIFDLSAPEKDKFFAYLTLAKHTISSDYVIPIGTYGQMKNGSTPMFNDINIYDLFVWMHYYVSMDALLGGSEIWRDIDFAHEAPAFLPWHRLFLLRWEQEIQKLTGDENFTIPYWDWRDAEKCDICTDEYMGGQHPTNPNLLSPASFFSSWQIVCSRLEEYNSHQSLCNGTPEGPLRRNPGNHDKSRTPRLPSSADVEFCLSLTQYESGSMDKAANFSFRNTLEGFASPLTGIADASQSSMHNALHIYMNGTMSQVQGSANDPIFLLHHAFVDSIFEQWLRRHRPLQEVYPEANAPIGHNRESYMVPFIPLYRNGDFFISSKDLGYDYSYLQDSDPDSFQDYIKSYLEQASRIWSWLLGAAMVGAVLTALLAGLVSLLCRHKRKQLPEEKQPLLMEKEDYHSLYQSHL

With `Oc1ccc(C2CCCCC2)c(O)c1` [4-cyclohexylresorcinol, 4-Cyclohexylresorcinol], the pIC50 at human tyrosinase is 6.52. Besides, in the test with black guinea pigs, the “depigmentation of skin (in words)” value was “depigmentation of skin was visualized”; the “reduction of pigmentation in treated ears (in words)” value is listed as “reduced pigmentation in treated ears starting 3 weeks after initial treatment”; the “reversibility of the depigmentation effect (in words)” value was “reversible, and repigmentation partially resumed one week after ceasing treatment”; the “Depigmentation effect, Δ light reflectance (treated ear - untreated ear), 1 week post-treatment” value is 1 and 0. Moreover, in the test on black guinea pigs, the “Depigmentation effect, Δ light reflectance (treated ear - untreated ear), 3-week” value was 13 and 0 and 14 and 3; the “Depigmentation effect, Δ light reflectance (treated ear - untreated ear), 6-week” value is 8 and 0 and 14 and 7; the “Depigmentation effect, Δ light reflectance (treated ear - untreated ear), 8.5 week” value was 6 and 7 and 19.
With `Oc1ccc(C2CCCC2)c(O)c1` [4-cyclopentylresorcinol, 4-Cyclopentylresorcinol], in the test with black guinea pigs, the “depigmentation of skin (in words)” value is on record as “depigmentation of skin was visualized”; the “reduction of pigmentation in treated ears (in words)” value was “reduced pigmentation in treated ears starting 3 weeks after initial treatment”; the “reversibility of the depigmentation effect (in words)” value was “reversible, and repigmentation partially resumed one week after ceasing treatment”; the “Depigmentation effect, Δ light reflectance (treated ear - untreated ear), 1 week post-treatment” value is reported as 6. Further, in the test with black guinea pigs, the “Depigmentation effect, Δ light reflectance (treated ear - untreated ear), 3-week” value was 15 and 9 and 4; the “Depigmentation effect, Δ light reflectance (treated ear - untreated ear), 6-week” value was 12 and 9; the “Depigmentation effect, Δ light reflectance (treated ear - untreated ear), 8.5 week” value was 10 and 18 and 7.
